Paper PMC1570497, “HIV-2 Protease resistance defined in yeast cells” (Retrovirology, 2006)
Numbering of substitutions follows the chain as printed. Where “and” joins values, the source holds several entries; their conditions need not be identical. Equal entries are not always repeated.

Legend:
[1] = molecular target: T1, HIV-2ROD Protease (wild type) (Human immunodeficiency virus type 2 subtype A, UniProt P04584); experiment: yeast growth rescue assay, HIV-2ROD Protease expressed in BY4741 yeast; format: cell-based; conditions: for Phenotype (transformed yeast) (% cell growth): galactose, wild type ROD Protease; for Phenotype (transformed yeast) (% cell growth) / IC50: 48 h; for IC50isolate/IC50ROD: ROD (reference); for IC50: ROD Protease
T1 construct: initiator Met (added ATG start codon) (N); expressed in transfected cells; host or cells: Saccharomyces cerevisiae BY4741, pRS316Gal1/10-HIV2PR (galactose-inducible)
T1 sequence (P04584 514-612 limits assumed): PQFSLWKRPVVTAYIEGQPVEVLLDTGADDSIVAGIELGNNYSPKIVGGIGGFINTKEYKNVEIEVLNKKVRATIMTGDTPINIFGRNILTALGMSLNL

HIV-2 Protease MRT-20 = HIV-2 Protease MRT-20 (Human immunodeficiency virus type 2, UniProt P04584, cells depend on it, form not given); experiment: yeast growth rescue assay, Protease from infected individual; format: cell-based; conditions: for Phenotype (transformed yeast) (% cell growth) / IC50: MRT-20 Protease; for IC50isolate/IC50ROD: MRT-20; for IC50: yeast
Sequence of HIV-2 Protease MRT-20 (P04584 514-612 limits assumed, stated change not applied): as the sequence (P04584 514-612 limits assumed) above

HIV-2ROD Protease L90M = molecular target: T2, HIV-2ROD Protease L90M (Human immunodeficiency virus type 2 subtype A, UniProt P04584, L603M); experiment: cell-based; format: cell-based; conditions: for IC50mutant/IC50ROD: L90M
T2 sequence (P04584 514-612 L603M): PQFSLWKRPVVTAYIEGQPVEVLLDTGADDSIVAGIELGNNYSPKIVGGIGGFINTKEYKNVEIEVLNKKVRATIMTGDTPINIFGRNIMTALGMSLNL

HIV-2ROD Protease L99F = molecular target: T3, HIV-2ROD Protease L99F (Human immunodeficiency virus type 2 subtype A, UniProt P04584, L612F); experiment: cell-based; conditions: for IC50mutant/IC50ROD: L99F
T3 construct: contains a Phe codon at position 99 of the HIV-2 Protease, followed by a stop codon; initiator Met (start codon of primer Fwd) (N); expressed in transfected cells; host or cells: Saccharomyces cerevisiae BY4741, pRS316GAL1/10
T3 sequence (P04584 514-612 L612F): T2 sequence (P04584 514-612 L603M) with M90L, L99F

HIV-2ROD Protease = molecular target: T4, HIV-2ROD Protease (Human immunodeficiency virus type 2 subtype A, UniProt P04584); format: cell-based
T4 construct: initiator Met (added ATG start codon) (N); expressed in transfected cells; host or cells: Saccharomyces cerevisiae BY4741, pRS316Gal1/10-HIV2PR (galactose-inducible)
T4 sequence (P04584 514-612 limits assumed): as the sequence (P04584 514-612 limits assumed) above

HIV-2ROD wild type = tested on: HIV-2ROD wild type; design: method as in previously published data; key: resistant (R); sensitive (S); conditions: ref previously published data; cited from earlier work
HIV-2 K45R = tested on: HIV-2 K45R; design: method as in PMID 16464891; key: resistant (R); sensitive (S); conditions: cited from earlier work
HIV-2 V20A, I54M = tested on: HIV-2 V20A, I54M; design: method as in PMID 16464891; key: resistant (R); sensitive (S); conditions: cited from earlier work
Protease from HIV-2ROD = tested on: Protease from HIV-2ROD; design: method as in PMID 16464891, PMID 16327332; conditions: read-out: IC50 already reported in the literature; cited from earlier work
HIV-2 Protease MRT-1 = HIV-2 Protease MRT-1 (Human immunodeficiency virus type 2, UniProt P04584, cells depend on it, form not given); experiment: yeast growth rescue assay, Protease from infected individual; conditions: for Phenotype (transformed yeast) (% cell growth) / IC50: MRT-1 Protease; for IC50: yeast
Sequence of HIV-2 Protease MRT-1 (P04584 514-612 limits assumed, change not shown): as the sequence (P04584 514-612 limits assumed) above

HIV-2 Protease MRT-7 = HIV-2 Protease MRT-7 (Human immunodeficiency virus type 2, UniProt P04584, cells depend on it, form not given); experiment: as above; conditions: for Phenotype (transformed yeast) (% cell growth) / IC50: MRT-7 Protease; for IC50: yeast
Sequence of HIV-2 Protease MRT-7 (P04584 514-612 limits assumed, stated change not applied): as the sequence (P04584 514-612 limits assumed) above

HIV-2 Protease MRT-8 = HIV-2 Protease MRT-8 (Human immunodeficiency virus 2, UniProt P04584, L603M, cells depend on it, form not given); experiment: as above; conditions: for Phenotype (transformed yeast) (% cell growth) / IC50: MRT-8 Protease; for IC50: yeast
HIV-2 Protease MRT-22 = HIV-2 Protease MRT-22 (Human immunodeficiency virus type 2, UniProt P04584, cells depend on it, form not given); experiment: as above; conditions: for Phenotype (transformed yeast) (% cell growth) / IC50: MRT-22 Protease; for IC50isolate/IC50ROD: MRT-22; for IC50: yeast
Sequence of HIV-2 Protease MRT-22 (P04584 514-612 limits assumed, change not shown): as the sequence (P04584 514-612 limits assumed) above

HIV-2 Protease MRT-25 = HIV-2 Protease MRT-25 (Human immunodeficiency virus type 2, UniProt P04584, cells depend on it, form not given); experiment: as above; conditions: for Phenotype (transformed yeast) (% cell growth) / IC50: MRT-25 Protease; for IC50: yeast
Sequence of HIV-2 Protease MRT-25 (P04584 514-612 limits assumed, change not shown): as the sequence (P04584 514-612 limits assumed) above

HIV-2 Protease MRT-29 = HIV-2 Protease MRT-29 (Human immunodeficiency virus type 2, UniProt P04584, cells depend on it, form not given); experiment: as above; conditions: for Phenotype (transformed yeast) (% cell growth) / IC50: MRT-29 Protease; for IC50isolate/IC50ROD: MRT-29; for IC50: yeast
Sequence of HIV-2 Protease MRT-29 (P04584 514-612 limits assumed, stated change not applied): as the sequence (P04584 514-612 limits assumed) above

HIV-2 M76V = tested on: HIV-2 M76V; design: key: resistant (R); sensitive (S); conditions: cited from earlier work

| Structure (SMILES) | IC50isolate/IC50ROD [1] | IC50 [1] | IC50isolate/IC50ROD (HIV-2 Protease MRT-20) | IC50 (HIV-2 Protease MRT-20) | IC50 (HIV-2ROD Protease L90M) | IC50mutant/IC50ROD (HIV-2ROD Protease L90M) | IC50 (HIV-2ROD Protease L99F) | IC50mutant/IC50ROD (HIV-2ROD Protease L99F) | Phenotype (virus production) (HIV-2ROD wild type) | Phenotype (virus production) (HIV-2 K45R) | Phenotype (virus production) (HIV-2 V20A, I54M) | IC50 (Protease from HIV-2ROD) | IC50 (HIV-2 Protease MRT-1) | IC50 (HIV-2 Protease MRT-7) | IC50 (HIV-2 Protease MRT-8) | IC50isolate/IC50ROD (HIV-2 Protease MRT-22) | IC50 (HIV-2 Protease MRT-22) | IC50 (HIV-2 Protease MRT-25) | IC50isolate/IC50ROD (HIV-2 Protease MRT-29) | IC50 (HIV-2 Protease MRT-29) | further results |
| --- | --- | --- | --- | --- | --- | --- | --- | --- | --- | --- | --- | --- | --- | --- | --- | --- | --- | --- | --- | --- | --- |
| Cc1cccc(C)c1OCC(=O)N[C@@H](Cc1ccccc1)[C@@H](O)C[C@H](Cc1ccccc1)NC(=O)[C@H](C(C)C)N1CCCNC1=O [LPV, Lopinavir] | 1.00 | 16.6 ± 2.5 µM | 1.40 | 23.2 ± 4.4 µM | 12.5 ± 8.1 µM | 0.75 | 11.1 ± 3.1 µM | 0.67 | S | R [9] | R [9] | 27 nM | 48 ± 3.2 µM | 10.8 ± 5 µM | 12.5 ± 1.5 µM | 0.91 | 15.1 ± 4.3 µM | 19.9 ± 4.6 µM | 0.84 | 13.9 ± 5.5 µM | Phenotype (transformed yeast) (% cell growth) ([1]; LPV at 150 μM): 91.5% and 91.5+/-1.2%; Phenotype (transformed yeast) (% cell growth) (HIV-2 Protease MRT-20; LPV at 150 μM): 71.5+/-1.2%; growth in galactose (HIV-2ROD Protease; 60 μM LPV): grew in galactose; Phenotype (transformed yeast) (% cell growth) (HIV-2 Protease MRT-1; LPV at 150 μM): 50.0+/-3.0%; Phenotype (transformed yeast) (% cell growth) (HIV-2 Protease MRT-7; LPV at 150 μM): 100.0+/-4.7%; Phenotype (transformed yeast) (% cell growth) (HIV-2 Protease MRT-8; LPV at 150 μM): 82.0+/-7.5%; Phenotype (transformed yeast) (% cell growth) (HIV-2 Protease MRT-22; LPV at 150 μM): 98.5+/-1.0%; Phenotype (transformed yeast) (% cell growth) (HIV-2 Protease MRT-25; LPV at 150 μM): 100.0+/-2.0%; IC50isolate/IC50ROD (HIV-2 Protease MRT-25; MRT-25): 1.20; Phenotype (transformed yeast) (% cell growth) (HIV-2 Protease MRT-29; LPV at 150 μM): 93.0+/-2.0% |
| CC(C)(C)NC(=O)[C@@H]1C[C@@H]2CCCC[C@@H]2CN1C[C@@H](O)[C@H](Cc1ccccc1)NC(=O)[C@H](CC(N)=O)NC(=O)c1ccc2ccccc2n1 [SQV, Saquinavir] | 1.00 | 150 ± 7.2 µM | 0.79 | 118 ± 6.3 µM | 554.1 ± 3.9 µM | 3.7 | 147 ± 5.1 µM | 0.98 | S | R [9] | R [9] | 11 nM | 200 ± 5.1 µM | 68.9 ± 6.2 µM | 553.9 ± 4.2 µM | 0.70 | 105 ± 7.1 µM | 48.5 ± 4.7 µM | 1.02 | 153 ± 3 µM | Phenotype (transformed yeast) (% cell growth) ([1]; SQV at 1mM): 75% and 75.0+/-7.0%; Phenotype (transformed yeast) (% cell growth) (HIV-2 Protease MRT-20; SQV at 1mM): 78.0+/-3.0%; growth on galactose plates (lethal phenotype) (HIV-2ROD Protease; SQV at 200 μM, 2 days at 30°C): the lethal phenotype was no longer observed; Phenotype (virus production) (HIV-2 M76V): R [10]; IC50isolate/IC50ROD (HIV-2 Protease MRT-1; MRT-1): 1.34; Phenotype (transformed yeast) (% cell growth) (HIV-2 Protease MRT-1; SQV at 1mM): 71.0+/-5%; IC50isolate/IC50ROD (HIV-2 Protease MRT-7; MRT-7): 0.46; Phenotype (transformed yeast) (% cell growth) (HIV-2 Protease MRT-7; SQV at 1mM): 98.0+/-6%; IC50isolate/IC50ROD (HIV-2 Protease MRT-8; MRT-8): 4.2 and 4.23; Phenotype (transformed yeast) (% cell growth) (HIV-2 Protease MRT-8; SQV at 1mM, 1000 µM): 55% and 55.0+/-6.3%; Phenotype (transformed yeast) (% cell growth) (HIV-2 Protease MRT-22; SQV at 1mM): 82.0+/-7.1%; Phenotype (transformed yeast) (% cell growth) (HIV-2 Protease MRT-25; SQV at 1mM): 100.0+/-9.4%; Phenotype (transformed yeast) (% cell growth) (HIV-2 Protease MRT-29; SQV at 1mM): 72.0+/-3.0% |
